The text below walks through data of ChEMBL document CHEMBL1201862, “PubChem BioAssay data set” (2004).

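Results reflect a 48-hour exposure of cells in 96-well plates to compound at five concentrations. Here, GI50 denotes the concentration required for 50% inhibition of growth.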 The source made the active and inactive calls. Cut-off read from the data, not from the text of the source: active = GI50 up to about 1.1 µM and inactive = higher. A value given as a limit tells only on which side of the number the result lay.

Among the test systems are Hs-578T; SN12C; NCI/ADR-RES; HT-29; MOLT-4; COLO 205; IGROV-1; MDA-N; T47D; DU-145; SF-539; BT-549; NCI-H23; CAKI-1; OVCAR-4; PC-3; UACC-62; UO-31; HCT-15.
Holding throughout (test): growth of human tumour cells (NCI), 48 h

With `CCCn1c2c(c3ccccc3c1=O)C(=O)c1ccccc1-2`, the GI50 in the test with Hs-578T was 44.5 µM (inactive); in the test with SN12C, > 62.4 µM (inactive); in the test on NCI/ADR-RES it was > 100 µM (inactive); in the test on HT-29 it was > 29.8 µM (inactive); with MOLT-4 it was 3.61 µM (inactive); with COLO 205, > 54.6 µM (inactive). Moreover, the GI50 in the test on IGROV-1 is > 57.7 µM (inactive); in the test with MDA-N, > 100 µM (inactive); in the test with T47D it was > 54.1 µM (inactive); with DU-145 it was > 48.2 µM (inactive); with SF-539 it was > 55.2 µM (inactive); in the test on BT-549, > 100 µM (inactive). Further, the GI50 in the test on NCI-H23 is > 68.9 µM (inactive); with CAKI-1, 48.3 µM (inactive); in the test with OVCAR-4, > 100 µM (inactive); with PC-3 it was > 100 µM (inactive); with UACC-62, > 100 µM (inactive); with UO-31, > 19.7 µM (inactive).
In the case of `C[C@]12CC[C@@H]3c4ccc(O)cc4CC[C@H]3[C@@H]1C/C(=C\c1ccncc1)[C@@H]2O`, the GI50 was 4.42 µM (inactive) with Hs-578T; 26.9 µM (inactive) with SN12C; 5.56 µM (inactive) in the test with NCI/ADR-RES; 15.1 µM (inactive) in the test with HT-29; 3.6 µM (inactive) in the test on MOLT-4; 4.22 µM in the test on HCT-15. In addition, the GI50 with COLO 205 was 5.18 µM (inactive); with IGROV-1, 7.43 µM (inactive); in the test with MDA-N, 3.99 µM (inactive); in the test with T47D it was 3.55 µM (inactive); in the test on DU-145, 19.1 µM (inactive); with BT-549, 3.86 µM (inactive). The GI50 was 3.1 µM (inactive) in the test on NCI-H23; 12.8 µM (inactive) in the test on CAKI-1; 14.8 µM (inactive) in the test on OVCAR-4; 10.4 µM (inactive) in the test with PC-3; 10.8 µM (inactive) in the test on UACC-62; 21.5 µM (inactive) with UO-31.
In the case of `CC(=O)NNc1nc(-c2ccc([N+](=O)[O-])cc2)c(C#N)c(=O)n1C`, the GI50 in the test on Hs-578T is 27.1 µM (inactive); in the test with SN12C, > 100 µM (inactive); in the test on NCI/ADR-RES, > 100 µM (inactive); with HT-29, 99.3 µM (inactive); in the test with MOLT-4 it was 36.8 µM (inactive); with HCT-15, 29.3 µM. In addition, the GI50 with COLO 205 is 44.6 µM (inactive); in the test with IGROV-1, 16.8 µM (inactive); in the test with MDA-N, 86.7 µM (inactive); with T47D, > 100 µM (inactive); in the test on DU-145 it was 34.2 µM (inactive); in the test with SF-539, 18.3 µM (inactive). Also, the GI50 in the test on BT-549 was 1.88 µM (inactive); with NCI-H23, 29.4 µM (inactive); in the test on CAKI-1, 79.8 µM (inactive); in the test on OVCAR-4, 20.1 µM (inactive); with PC-3, 37.7 µM (inactive); in the test with UACC-62, 66.8 µM (inactive). Also, in the test with UO-31, the GI50 is 37.6 µM (inactive).
Regarding `N#Cc1c(Cl)c2cc([N+](=O)[O-])ccc2n2c1nc1ccccc12`, the GI50 in the test with Hs-578T was 7.69 µM (inactive); in the test on SN12C it was 4.44 µM (inactive); with NCI/ADR-RES, 5.07 µM (inactive); in the test with HT-29, 4.46 µM (inactive); in the test on MOLT-4 it was 0.8 µM (active); in the test on HCT-15, 0.933 µM. The GI50 with COLO 205 was 2.21 µM (inactive); in the test on MDA-N, 7.19 µM (inactive); with T47D, 1.79 µM (inactive); in the test on DU-145, 3.5 µM (inactive); in the test on SF-539, 2.15 µM (inactive); in the test on BT-549 it was 19.5 µM (inactive). In addition, the GI50 in the test on NCI-H23 is 9.98 µM (inactive); with CAKI-1 it was 2.14 µM (inactive); in the test with OVCAR-4, 2.15 µM (inactive); in the test on PC-3, 5.46 µM (inactive); in the test on UACC-62 it was 12 µM (inactive); with UO-31, 2.58 µM (inactive).
For the compound `CCSc1cc(=O)n(C)c(=O)n1C`, the GI50 is > 100 µM (inactive) with Hs-578T; > 100 µM (inactive) in the test on SN12C; > 100 µM (inactive) in the test with NCI/ADR-RES; > 100 µM (inactive) with HT-29; > 100 µM (inactive) in the test on MOLT-4; greater than 100 µM in the test with HCT-15. Moreover, the GI50 in the test on COLO 205, in the test on MDA-N, in the test with T47D, in the test on DU-145, in the test on SF-539 and with BT-549 was > 100 µM (inactive) throughout. Also, the GI50 with NCI-H23, in the test on CAKI-1, in the test on OVCAR-4, with PC-3, in the test with UACC-62 and in the test on UO-31 was > 100 µM (inactive) throughout.
As for `CCOC(=O)c1c(-c2ccc(Cl)cc2)c(C#N)c(=S)n(C2OC(COC(C)=O)C(OC(C)=O)C(OC(C)=O)C2OC(C)=O)c1-c1ccccc1` (stereo not given), the GI50 was > 100 µM (inactive) in the test with Hs-578T; > 100 µM (inactive) in the test with SN12C; > 100 µM (inactive) in the test on NCI/ADR-RES; > 100 µM (inactive) in the test on HT-29; > 100 µM (inactive) with MOLT-4; greater than 100 µM in the test with HCT-15. Further, the GI50 with COLO 205, with IGROV-1, in the test with MDA-N, in the test with T47D, with DU-145 and with SF-539 was > 100 µM (inactive) in each case. Also, the GI50 with BT-549, in the test on NCI-H23, with CAKI-1, with OVCAR-4, with PC-3 and in the test on UACC-62 was > 100 µM (inactive) in each case. In addition, the GI50 in the test with UO-31 was > 100 µM (inactive).
Regarding `CN(C)c1nc(NC23CC4CC(CC(C4)C2)C3)nc(N(C)C)n1`, the GI50 in the test with Hs-578T was 16.3 µM (inactive); with SN12C, 27.2 µM (inactive); with NCI/ADR-RES, 23.4 µM (inactive); in the test on HT-29, 26.6 µM (inactive); in the test with MOLT-4, 10 µM (inactive); with HCT-15, 5.15 µM. The GI50 with COLO 205 was 11.7 µM (inactive); in the test with MDA-N, 8.67 µM (inactive); in the test on T47D it was 7.29 µM (inactive); in the test with DU-145, 16.4 µM (inactive); in the test on SF-539 it was 21.8 µM (inactive); in the test on BT-549, 21.4 µM (inactive). Besides, the GI50 in the test with NCI-H23 is 9.33 µM (inactive); with CAKI-1, 37.6 µM (inactive); with OVCAR-4, > 100 µM (inactive); in the test on PC-3, 8.32 µM (inactive); in the test with UACC-62, 25.8 µM (inactive); with UO-31 it was 31.4 µM (inactive).
On to `O=C1CSC2=NC3=C(COC/C3=C\c3ccc(Br)cc3)C(c3ccc(Br)cc3)N12` (stereo not given), for which the GI50 is > 100 µM (inactive) in the test on Hs-578T; > 100 µM (inactive) in the test with SN12C; 31.8 µM (inactive) in the test with NCI/ADR-RES; 15.2 µM (inactive) with MOLT-4; 52.6 µM in the test on HCT-15; 58.7 µM (inactive) with COLO 205. In addition, the GI50 was 98.6 µM (inactive) in the test with IGROV-1; 43 µM (inactive) in the test on MDA-N; 53.2 µM (inactive) with T47D; > 100 µM (inactive) in the test with DU-145; > 100 µM (inactive) with SF-539; > 100 µM (inactive) with BT-549. The GI50 in the test on NCI-H23 is 90.6 µM (inactive); with CAKI-1 it was > 100 µM (inactive); in the test on OVCAR-4, > 100 µM (inactive); with PC-3, 41.8 µM (inactive); in the test with UACC-62, > 100 µM (inactive); in the test on UO-31 it was 35.3 µM (inactive).
Consider `CO[C@@H]1C[C@H]2[C@@H]3CC[C@H]([C@@H](C)COC(C)=O)[C@@]3(C)CC[C@@H]2[C@@]2(C)CC[C@H]3C[C@]312`, for which the GI50 in the test on Hs-578T is 18.5 µM (inactive); in the test on SN12C it was 16.5 µM (inactive); with NCI/ADR-RES, 14.1 µM (inactive); in the test on HT-29, 6.92 µM (inactive); in the test with MOLT-4 it was 15.3 µM (inactive); in the test on HCT-15, 13.3 µM. Besides, the GI50 is 0.879 µM (active) with COLO 205; 15.5 µM (inactive) in the test on IGROV-1; 16.9 µM (inactive) in the test on MDA-N; 13.2 µM (inactive) in the test with T47D; 14 µM (inactive) in the test with DU-145; 17.5 µM (inactive) in the test on SF-539. For the same compound, the GI50 with BT-549 is 14.2 µM (inactive); in the test with NCI-H23 it was 12.8 µM (inactive); with CAKI-1, 9.12 µM (inactive); with OVCAR-4, 22 µM (inactive); in the test with PC-3, 15.2 µM (inactive); in the test on UO-31, 18.5 µM (inactive).
With `O=C(CN1CCNCCN(CC(=O)N2CCCCC2)CCNCC1)N1CCCCC1`, the GI50 in the test on Hs-578T is > 100 µM (inactive); in the test with SN12C, > 100 µM (inactive); in the test with NCI/ADR-RES, > 100 µM (inactive); in the test on HT-29, 18.2 µM (inactive); in the test with MOLT-4, 84.7 µM (inactive); in the test on HCT-15, greater than 100 µM. In addition, the GI50 is > 100 µM (inactive) with COLO 205; 33.5 µM (inactive) with IGROV-1; > 100 µM (inactive) in the test with MDA-N; > 100 µM (inactive) with T47D; > 100 µM (inactive) in the test with DU-145; > 100 µM (inactive) in the test with SF-539. Besides, the GI50 with BT-549, in the test on CAKI-1, in the test on OVCAR-4, in the test with PC-3, with UACC-62 and in the test with UO-31 was > 100 µM (inactive) in each case.
As to `CCN(CC)CCOc1ccc(N2C(=O)c3cc(OC)c(OC)cc3C2=O)cc1`, the GI50 is > 100 µM (inactive) with Hs-578T; > 100 µM (inactive) in the test with SN12C; > 100 µM (inactive) in the test on NCI/ADR-RES; > 100 µM (inactive) in the test with HT-29; > 100 µM (inactive) with MOLT-4; greater than 100 µM with HCT-15. Moreover, the GI50 in the test with COLO 205, in the test on IGROV-1, with MDA-N, with T47D, in the test on DU-145 and with SF-539 was > 100 µM (inactive) throughout. For the same compound, the GI50 in the test with BT-549, in the test with NCI-H23, in the test with CAKI-1, with OVCAR-4, with PC-3 and with UACC-62 was > 100 µM (inactive) throughout.
